Tests used:
[1] = biological target: recombinant human GST-Syk (Homo sapiens (Human), UniProt P43405); experiment: Homogeneous Time-Resolved Fluorescence (HTRF) assay for the recombinant human Syk enzyme; type: biochemical; details: 10-dose titration 10 μM to 0.508 nM; 25 μM ATP; values below lowest test concentration given as <0.508
Procedure: Assay 1: Homogeneous Time-Resolved Fluorescence (HTRF) Assay for the Recombinant Human Syk Enzyme A recombinant GST-hSyk fusion protein was used to measure potency of compounds to inhibit human Syk activity. The recombinant human GST-Syk (Carna Biosciences #08-176) (5 pM final concentration total protein) was incubated with various concentrations of the inhibitor diluted in DMSO (0.1% final concentration) for 10 minutes at room temperature in 15 mM Tris-HCl (pH 7.5), 0.01% Tween 20, 2 mM DTT in 384 well plate format. To initiate the reaction the biotinylated substrate peptide (250 nM final concentration) that contains the phosphorylation site for Syk was added with magnesium (5 mM final concentration) and ATP (25 μM final concentration). The final volume of the reaction was 10 μL. Phosphorylation of the peptide was allowed to proceed for 45′ at room temperature. To quench the reaction and detect the phosphorylated product, 2 nM of a Europium-anti-phosphotyrosine antibody (Perkin Elmer #AD0161) and 70 nM SA-APC (Perkin-Elmer #CR130-100) were added together in 15 mM Tris pH 7.5, 40 mM EDTA, 0.01% Tween 20. The final volume of the quenching solution was 10 μL. The resulting HTRF signal was measured after 30 minutes on a EnVision (Perkin-Elmer) reader using a time-resolved fluorescence protocol. […] Table A provides the IC50 values for representative compounds of the invention.

[2] = biological target: phosphorylated Syk enzyme (Homo sapiens (Human), UniProt P43405); experiment: Dissociation rate: enzyme-inhibitor dilution and activity recovery assay (TR-FRET); type: biochemical; details: for recovery of Syk enzyme activity following dilution of the inhibitor:Syk complex (relative to the DMSO control): 100-fold dilution after 2 hours preincubation, FIG. 1 and FIG. 2
Procedure: Assay 2: Determination of the Dissociation Rate for Compound 1B
The dissociation rate (koff) of inhibitor:phosphorylated Syk complexes was examined using an enzyme-inhibitor dilution and activity recovery assay (R. A. Copeland, Enzymes: A practical introduction to structure, Mechanism, and Data Analysis Wiley-VCH 2000 and R. A. Copeland, Evaluation of Enzyme Inhibitors in Drug Discovery John Wiley & Sons, 2005). In this assay the recovery of kinase activity following dilution is measured using a time resolved fluorescence resonance energy transfer (TR-FRET) assay. The enzyme (at 100× the usual assay concentration) and inhibitor (at 20× the usual assay concentration) are preincubated for 2 hours to ensure equilibrium is reached. The samples are then diluted 100-fold into assay buffer (1× Kinase buffer [Invitrogen, Inc], 2 mM DTT, 0.05% BSA) containing a saturating amount of competitive substrate (1 mM ATP, to minimize rebinding of inhibitor) and peptide substrate (1 μM). The final nominal enzyme concentration following dilution is 4 pM. Samples (1 μL) are periodically withdrawn from the assay plate and transferred into 50 uL of detection/quench buffer (10 nM streptavidin labeled Dylite (Perkin Elmer) and 3 nM Eu-labeled antiphosphotyrosine antibody (pY20, Perkin Elmer). After 30 minutes incubation, the assay plate was read on the Envision reader (Perkin Elmer) using the following parameters: excitation wavelength of 320 nm, and dual emission monitoring at 616 and 665 nm. The delay time was 20 μs with a 200 μs window time. The time between flashes was 16600 μs and 20 flashes were used per well.
The recovery of enzyme activity is fit to the following equation (Morrison, J. F., and Walsh, C. T., (1988) Advances in Enzymology and Related Areas of Molecular Biology, 61 201-301): P=vst+[(vi−vs)/kobs][1−exp(−kobst)]+P0 where P is the quantity of phosphorylated peptide product produced, P0 is the concentration of phosphopeptide product present at time=0 (immediately following dilution), vs is the steady-state velocity, vi is the rate at time=0, and kobs is the rate constant describing activity recovery.

allergic rhinitis [3] = details: phase II clinical trial; cited from earlier work
allergic rhinitis [4] = details: dosed intranasally, phase I/II study; cited from earlier work

| SMILES | IC50 [1] [nM] | recovery of Syk enzyme activity following dilution of the inhibitor:Syk complex (relative to the DMSO control) [2] | also measured |
| --- | --- | --- | --- |
| Cc1cc(Nc2nccc(C(F)(F)F)n2)cc(-c2cnc([C@@]3(O)CCCc4cc(C(=O)O)ccc43)s2)c1 [Compound 1B, (R)-5-hydroxy-5-(5-(3-methyl-5-((4-(trifluoromethyl)pyrimidin-2-yl)amino)phenyl)thiazol-2-yl)-5,6,7,8-tetrahydronaphthalene-2-carboxylic acid] | < 0.508 | only a fraction of the activity returned (relative to the DMSO control) after two hours | dissociation rate of the inhibitor:phosphorylated Syk complex [2]: slow dissociation rate; half-life of the inhibitor:Syk complex ([2]; after 100-fold dilution into 1 mM ATP, FIG. 2): > 2 h |
| Cc1cc(Nc2nccc(C(F)(F)F)n2)cc(-c2cnc([C@]3(O)CCCc4cc(C(=O)O)ccc43)s2)c1 [Compound 1A, (S)-5-hydroxy-5-(5-(3-methyl-5-((4-(trifluoromethyl)pyrimidin-2-yl)amino)phenyl)thiazol-2-yl)-5,6,7,8-tetrahydronaphthalene-2-carboxylic acid] | 1.6 | – | – |
| Cc1cc(Nc2nccc(C(F)(F)F)n2)cc(-c2cnc(C3(O)CCCc4cc(C(=O)O)ccc43)s2)c1 (racemic) [Compound 1, 5-hydroxy-5-(5-(3-methyl-5-((4-(trifluoromethyl)pyrimidin-2-yl)amino)phenyl)thiazol-2-yl)-5,6,7,8-tetrahydronaphthalene-2-carboxylic acid] | < 0.508 | – | – |
| Oc1cccc(Nc2ncc(F)c(Nc3cccc(O)c3)n2)c1 [Compound R112] | – | – | efficacy versus placebo (allergic rhinitis [3]): lack of efficacy; PGD2 (allergic rhinitis [4]): statistically significant decrease; clinical safety (allergic rhinitis [4]): safe across a range of indicators |
| Cc1cc(Nc2nccc(C(C)C)n2)cc(-c2cnc([C@]3(O)CC[C@@H](C(=O)O)CC3)s2)c1 [Compound A, reference compound] | < 0.508 | fully recovered (relative to the DMSO control) within the first five minutes after dilution | – |

— patent publication US9624210B2, “Amino-pyrimidine-containing spleen tyrosine kinase (Syk) inhibitors” (Merck Sharp & Dohme Corp., priority 2012, dated 2017)
